Results reported in US20220144812A1, “QUINOLINE DERIVATIVES AND THEIR USE FOR THE TREATMENT OF CANCER” (Epizyme, Inc., priority 2019, published 2022).
Where two headings read alike, the source gives them in different places.

Legend:
EP300 (P300(1048-1664)) = target: T1, EP300 (P300(1048-1664)) (Homo sapiens, UniProt Q09472); assay: Biochemical assay for EP300, SAMDI; conditions: read-out: EP300 Biochemistry IC50
T1 construct: P300(1048-1664)
T1 sequence (Q09472 1048-1664): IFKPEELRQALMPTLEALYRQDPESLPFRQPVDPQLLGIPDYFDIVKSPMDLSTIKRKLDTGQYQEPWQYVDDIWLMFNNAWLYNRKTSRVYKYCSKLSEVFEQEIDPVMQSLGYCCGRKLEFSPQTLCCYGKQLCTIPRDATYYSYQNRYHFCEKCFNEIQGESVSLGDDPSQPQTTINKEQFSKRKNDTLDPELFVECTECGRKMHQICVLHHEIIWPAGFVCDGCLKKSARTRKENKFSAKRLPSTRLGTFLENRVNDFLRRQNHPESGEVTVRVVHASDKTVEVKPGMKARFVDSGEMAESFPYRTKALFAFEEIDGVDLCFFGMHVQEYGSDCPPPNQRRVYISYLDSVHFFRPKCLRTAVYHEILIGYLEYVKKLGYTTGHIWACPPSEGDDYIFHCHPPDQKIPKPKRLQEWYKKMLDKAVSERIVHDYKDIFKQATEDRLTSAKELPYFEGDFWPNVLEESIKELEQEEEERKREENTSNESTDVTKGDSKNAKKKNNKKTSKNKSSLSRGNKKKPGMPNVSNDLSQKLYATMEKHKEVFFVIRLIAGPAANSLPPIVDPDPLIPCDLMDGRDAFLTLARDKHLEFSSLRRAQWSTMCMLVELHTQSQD
Source text: The following example describes materials and methods relating to a biochemical assay for EP300. IC50 values (micromolar (μM)) are summarized in Table 1, Table 2, and Table 3 under the column labeled: “EP300 Biochemistry IC50 (micromolar).”

[1] = test system: H3K18Ac in HB-CLS-2 cells; assay: H3K18AC in-cell western (ICW) assay; format: cell-based; conditions: read-out: CREBBP ICW IC50
Outline: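 In-cell western: after methanol fixation, blocking, overnight 4° C anti-H3K18Ac staining, then 800CW secondary plus DRAQ5 for DNA content, integrated intensities were scanned at 800 and 700 nm. Before this, compound exposure lasted 2 hr at 37° C in HB-CLS-2 cells plated 16–24 hours earlier. Values expressed as IC50 (μM).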

647V cells = assay: High throughput proliferation (HTP) assay; format: cell-based; conditions: read-out: CREBBP HTP IC50
Outline: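 Proliferation IC50 (micromolar) derived from a 7-day CellTiter-Glo viable-cell readout in 647V cells exposed, in triplicate, to rising compound concentrations; cells grown in DMEM plus 15% heat-inactivated FBS at 37° C under 5% CO2.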

CREBBP (1084-1701) = target: T2, CREBBP (1084-1701) (Homo sapiens, UniProt Q92793); assay: Biochemical assay for CREBBP (1084-1701), SAMDI; conditions: read-out: CREBBP Biochemistry IC50
T2 construct: measured in the following biochemical assay using CREBBP (1084-1701); purchased
Outline: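 Acetyltransferase activity measured by SAMDI mass spectrometry after capture on biochip. Enzyme sat with compound 30 min at RT before acetyl-CoA and biotinylated H3 11-25 (K14R, K23R) peptide were added for 30 min at RT. Formic acid quench, bicarbonate neutralisation; IC50 values reported.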

[2] = Homo sapiens, 647-V, high throughput proliferation
[3] = H3K18Ac in-cell western, HB-CLS-2 cells
[4] = Homo sapiens, 647-V, high throughput proliferation, 647V cells
[5] = P300(1048-1664), Peptide #233, Ac-CoA, SAMDI mass spectrometry
[6] = 2 h, H3K18Ac in HB-CLS-2 cells, 2 hrs compound incubation
[7] = Homo sapiens, 647-V, 168 h, 647V cells, day 7, CellTiter-Glo
[8] = Peptide #233, Acetyl-CoA, SAMDI mass spectrometry

T2 sequence (Q92793 1084-1701): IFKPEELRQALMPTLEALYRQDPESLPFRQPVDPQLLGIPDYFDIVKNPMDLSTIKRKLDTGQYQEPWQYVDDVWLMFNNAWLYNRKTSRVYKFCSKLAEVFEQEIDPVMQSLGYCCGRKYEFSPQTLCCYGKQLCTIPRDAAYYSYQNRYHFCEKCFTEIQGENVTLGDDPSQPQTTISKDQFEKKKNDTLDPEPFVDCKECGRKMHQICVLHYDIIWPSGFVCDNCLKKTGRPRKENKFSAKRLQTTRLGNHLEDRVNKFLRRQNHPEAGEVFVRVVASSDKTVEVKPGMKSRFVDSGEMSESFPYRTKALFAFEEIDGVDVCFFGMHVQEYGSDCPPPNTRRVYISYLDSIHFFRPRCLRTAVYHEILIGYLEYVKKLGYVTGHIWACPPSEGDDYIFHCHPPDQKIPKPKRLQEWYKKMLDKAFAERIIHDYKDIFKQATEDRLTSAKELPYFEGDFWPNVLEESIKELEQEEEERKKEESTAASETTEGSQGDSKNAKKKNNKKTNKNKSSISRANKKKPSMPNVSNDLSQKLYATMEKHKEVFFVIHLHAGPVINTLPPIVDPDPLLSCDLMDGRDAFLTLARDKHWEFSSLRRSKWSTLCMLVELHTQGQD

Row | SMILES | IC50 (EP300 (P300(1048-1664)); EP300, SAMDI) [nM] | IC50 ([1]; H3K18Ac in-cell western) [nM] | IC50 (CREBBP (1084-1701); SAMDI) [nM] | IC50 [1, 3] [nM] | IC50 (EP300 (P300(1048-1664)); [5]) [nM] | IC50 [1, 6] [nM] | IC50 (CREBBP (1084-1701); [8]) [nM] | IC50 (647V cells; [2]) [nM] | IC50 (647V cells; high throughput proliferation, 647V cells) [nM] | IC50 (647V cells; [4]) [nM] | IC50 (647V cells; [7]) [nM]
1 | CCn1ncc(CN(C)C(=O)c2nc(-c3ccc4n[nH]c(N)c4c3)nc3ccc(Cl)cc23)c1C [Compound 532] | 15.4 | 158 | 17.3 |  |  |  |  | 288 |  |  | 
2 | CCn1ncc(CN(C)C(=O)c2nc(-c3cnc4n[nH]c(N)c4c3)nc3ccc(Cl)cc23)c1C [Compound 621] | 397 | 222 | 216 |  |  |  |  | 391 |  |  | 
3 | CCn1ncc(CN(C)C(=O)c2nc(-c3cc(Cl)cc(OCCCNC)c3)nc3ccc(Cl)cc23)c1C [Compound 128] | 800 | 4500 | 350 |  |  |  |  | 1900 |  |  | 
4 | CCn1ncc(CN(C)C(=O)c2cc(-c3ccc(OCCNC)c(Cl)c3)nc3ccc(P(C)(C)=O)cc23)c1C [Compound 407] | 700 |  | 2100 | 18000 |  |  |  |  | 7400 |  | 
5 | CCn1ncc(CN(C)C(=O)c2nc(-c3cc(C)c4c(N)[nH]nc4c3)nc3ccc(Cl)cc23)c1C [Compound 459] | 4.5 | 60.4 | 13.9 |  |  |  |  | 54.4 |  |  | 
6 | CCn1ncc(CN(C)C(=O)c2cc(-c3ccc(N(C)CCNC)c(C)n3)nc3ccc(Cl)cc23)c1C [Compound 417] | 16000 |  | 22000 | 4900 |  |  |  |  |  | 3100 | 
7 | CCn1ncc(CN(C)C(=O)c2nc(-n3cc(C)cn3)nc3ccc(Cl)cc23)c1C [Compound 182] | 19000 | 19000 | 70000 |  |  |  |  | 7800 |  |  | 
8 | CCn1ncc(CN(C)C(=O)c2nc(-c3ccc(OCCNC)c(Cl)c3)nc3ccc(C4COC4)cc23)c1C [Compound 498] | 4980 | 5550 | 5080 |  |  |  |  | 2880 |  |  | 
9 | CCn1ncc(CN(C)C(=O)c2cc(-c3ccc(NC4CNC4)c(C)n3)nc3ccc(Cl)cc23)c1C [Compound 389] | 7.4 |  | 17 | 82 |  |  |  |  |  | 73 | 
10 | CCn1ncc(C(C)N(C)C(=O)c2cc(-c3ccc(NCCNC)c(C)n3)nc3ccc(Cl)cc23)c1C (stereo not shown) [Compound 533] | 32.4 | 159 | 183 |  |  |  |  | 79.6 |  |  | 
11 | CCn1ncc(CN(C)C(=O)c2nc(-c3ccc(OCCNC(C)=O)c(Cl)c3)nc3ccc(Cl)cc23)c1C [Compound 35] | 180 | 290 | 44 |  |  |  |  | 220 |  |  | 
12 | CCn1ncc(CN(C)C(=O)c2nc(-c3ccc(OCCNC)nn3)nc3ccc(Cl)cc23)c1C [Compound 414] | 44000 |  | 30000 | 20000 |  |  |  |  |  | 20000 | 
13 | CCc1ncc(CN(C)C(=O)c2nc(-c3cc(C)c4c(N)[nH]nc4c3)nc3ccc(Cl)cc23)n1C [Compound 526] | 2 | 46.5 | 6.42 |  |  |  |  | 72 |  |  | 
14 | COCc1ccc2nc(-c3ccc(NCCN(C)C)c(C)n3)cc(C(=O)N(C)Cc3cnc(C4CC4)n3C)c2c1 [Compound 641] |  |  |  |  | 22.1 | 200 | 73.3 |  |  |  | 111
15 | CCc1ncc(CN(C)C(=O)c2cc(-c3cc(-c4ncc[nH]4)n(C)n3)nc3ccc(Cl)cc23)n1C [Compound 541] | 2.7 | 104 | 11.2 |  |  |  |  | 85.4 |  |  | 
16 | CNc1[nH]nc2ccc(-c3nc(C(=O)N(C)Cc4cnc(C5CC5)n4C)c4cc(COC)ccc4n3)cc12 [Compound 616] | 14.4 | 102 | 25.1 |  |  |  |  | 160 |  |  | 
17 | CCn1ncc(CN(C)C(=O)c2nc(-c3cc(Cl)c4nc[nH]c4c3)nc3ccc(COC)cc23)c1C [Compound 4] | 3.7 | 57 | 12 |  |  |  |  | 37 |  |  | 
18 | CCn1ncc(CN(C)C(=O)c2cc(-c3ccc(NCCNC)c(C)n3)nc3ccc(C(=O)N(C)C)cc23)c1C [Compound 460] | ≥ 50000 | 20000 | ≥ 50000 |  |  |  |  | 20000 |  |  | 
19 | CCn1ncc(CN(C)C(=O)c2nc(-c3cc(C(=O)NC)n(C)n3)nc3ccc(C4CC4)cc23)c1C [Compound 638] |  |  |  |  | 66.2 | 124 | 116 |  |  |  | 357

Further compounds by falling IC50 (EP300 (P300(1048-1664)); EP300, SAMDI), results first:

Row | IC50 (EP300 (P300(1048-1664)); EP300, SAMDI) [nM] | IC50 ([1]; H3K18Ac in-cell western) [nM] | IC50 (CREBBP (1084-1701); SAMDI) [nM] | IC50 [1, 3] [nM] | IC50 (EP300 (P300(1048-1664)); [5]) [nM] | IC50 [1, 6] [nM] | IC50 (CREBBP (1084-1701); [8]) [nM] | SMILES | IC50 (647V cells; [2]) [nM] | IC50 (647V cells; high throughput proliferation, 647V cells) [nM] | IC50 (647V cells; [4]) [nM] | IC50 (647V cells; [7]) [nM]
20 | 56000 | 20000 | 98000 |  |  |  |  | CCn1ncc(CN(C)C(=O)c2cc(-c3cn(C)c(OC)n3)nc3cc(Cl)ccc23)c1C [Compound 185] | 20000 |  |  | 
21 | 50000 |  | 50000 | 20000 |  |  |  | CCn1ncc(CN(C)C(=O)c2nc(-c3cc(C#N)n(C)n3)nc3ccc(Cl)cc23)c1C [Compound 406] |  |  | 20000 | 
22 | 3090 | 943 | 533 |  |  |  |  | CCc1ncc(CN(C)C(=O)c2nc(-c3ccc(NCCN(C)C)nc3C)nc3ccc(Cl)cc23)n1C [Compound 605] | 447 |  |  | 
23 | 1300 | 3300 | 4500 |  |  |  |  | CCn1ncc(CN(C)C(=O)c2cc(-c3cn(C)cn3)nc3ccc(Cl)cc23)c1C [Compound 119] | 690 |  |  | 
24 | 937 | 2050 | 88.2 |  |  |  |  | CCn1ncc(CN(C)C(=O)c2nc(-c3ccc(OCCCNC)c(C(C)C)c3)nc3ccc(Cl)cc23)c1C [Compound 440] | 991 |  |  | 
25 | 300 |  | 62 | 350 |  |  |  | CCn1ncc(CN(C)C(=O)c2nc(-c3ccc4c(N)[nH]nc4c3C)nc3ccc(Cl)cc23)c1C [Compound 402] |  |  | 310 | 
26 | 110 | 2800 | 160 |  |  |  |  | CCn1ncc(CN(C)C(=O)c2nc(-c3cc(Cl)cc(NCCCN(C)C(=O)OC(C)(C)C)c3)nc3ccc(Cl)cc23)c1C [Compound 115] | 4400 |  |  | 
27 | 88 | 380 | 69 |  |  |  |  | CCn1ncc(CN(C)C(=O)c2nc(-c3ccc(OCCCN4CCCCC4)c(C)c3)nc3ccc(Cl)cc23)c1C [Compound 42] | 180 |  |  | 
28 | 51.1 | 221 | 49.8 |  |  |  |  | CCn1ncc(CN(C)C(=O)c2cc(-c3ccc(NCCNC)c(C)n3)nc3ccc(C4CC4)cc23)c1C [Compound 449] | 135 |  |  | 
29 | 23.3 | 197 | 116 |  |  |  |  | CCc1ncc(CN(C)C(=O)c2cc(-c3ccc(N(C)C4CN(C)C4)c(C)n3)nc3ccc(Cl)cc23)n1C [Compound 572] | 133 |  |  | 
30 | 22.2 | 77.9 | 79.7 |  |  |  |  | CCc1ncc(CN(C)C(=O)c2cc(-c3cc(NCCNC)cc(OC)n3)nc3ccc(Cl)cc23)n1C [Compound 567] | 32 |  |  | 
31 | 20.9 | 85 | 59.6 |  |  |  |  | CCn1ncc([C@@H](C)N(C)C(=O)c2cc(-c3ccc(NCCN(C)C)c(C)n3)nc3ccc(Cl)cc23)c1C [Compound 610] | 37.8 |  |  | 
32 | 12 | 150 | 28 |  |  |  |  | CCn1ncc(CN(C)C(=O)c2nc(-c3ccc(OCC(O)CN4CCCC4)cc3Cl)nc3ccc(Cl)cc23)c1C (stereo not shown) [Compound 15] | 64 |  |  | 
33 | 10 | 180 | 27 |  |  |  |  | CCn1ncc(CN(C)C(=O)c2nc(-c3ccc(OCC(O)CNC)cc3Cl)nc3ccc(Cl)cc23)c1C (stereo not shown) [Compound 20] | 71 |  |  | 
34 | 3.5 | 110 | 13 |  |  |  |  | CCn1ncc(CN(C)C(=O)c2nc(-c3cc(Cl)cc(NCCNC)c3)nc3ccc(Cl)cc23)c1C [Compound 12] | 32 |  |  | 
